Here are results for 14 compounds from patent EP0311100A2, “Derivatives of dideoxycytidine, their preparation and pharmaceutical use” (F. HOFFMANN-LA ROCHE AG, priority 1987, dated 1989).

A short description of data set [1]: apparent partition coefficient n-octanol / phosphate buffer pH 7,4 (method of Hansch et al.). The format is physicochemical. The conditions noted are these: n-octanol / aqueous phosphate buffer pH 7,4. An excerpt:
Wie oben erwähnt, zeigen die erfindungsgemässen Verbindungen grössere Stabilität und Lipophilität als bekannte Nucleotidderivate. In der nachstehenden Tabelle I sind für ausgewählte erfindungsgemässe Verbindungen die gemessenen Verteilungskoeffizienten angegeben, die wiederum ein Anzeichen für die Lipophilität der Verbindung darstellt. Tabelle I

The nature of data set [2]: stability in human plasma at 37°C (HPLC). The format is in vitro ADME. The conditions noted are these: human plasma 37°C; for % N, O-Diacyl (1a): incubated 1a; for % N, O-Diacyl (1b): incubated 1b; for % N, O-Diacyl (1c): incubated 1c; for % N-Acyl (2a): incubated 2a; for % N-Acyl (2b): incubated 2b; for % N-Acyl (2c): incubated 2c. An excerpt:
(§1) Die Stabilität ausgewählter erfindungsgemässer Verbindungen in Methanol/Wasser oder menschlichem Blutplasma wurde wie nachstehend angegeben geprüft:
Die folgenden Verbindungen wurden auf Stabilität im menschlichen Plasma geprüft:
(§2) Zunächst wurden die HPLC-Bedingungen für die Probenmessung bestimmt, d.h. eine Revers-Phasen C-18-Säule mit einem Lösungsmittelsystem mit variierenden Verhältnissen von Methanol: […] Natriumphosphat, pH 6,8.
(§3) Danach wurde die maximale UV-Absorption für jede Probe und die grösste Stabilität unter Laborbedingungen für jede Probe in Methanol:Wasser bestimmt. Danach wurde die Stabilität im menschlichen Plasma untersucht.
Das im Experiment verwendete menschliche Plasma wurde bis zur Verwendung eingefroren.
(§4) Die HPLC-Apparatur war ein Gradientsystem bestehend aus einem Modell 1601 Gradient Master, einer Constametric I Pumpe und einer Constametric III Pumpe. Weiterhin wurden ein LDC-Spectromometer III als Detektor und ein Waters 712B Wisp Autoinjektor verwendet. Allen Proben wurde eine ODS-3 RAC II, 5 µ, 15 cm x 4,0 mm ID-Säule (Whatmann, Clifton, N.J.) verwendet. Das Lösungsmittelsystem bestand aus Methanol: 0,001M NaH₂PO₄ (pH 6,8) in den folgenden Proportionen: 1b, 2b - 50:50; 1a, 2a - 43:57; 1c, 2c - 50:50.
Jede Verbindung wurde in ein konisches 15 ml Teströhrchen eingewogen und in DMSO gelöst, so dass eine Vorratslösung von 10 mg/ml erhalten wurde. Die Proben für die Standardkurve wurden durch Verdünnen der DMSO-Vorratslösung mit der mobilen Phasen wie folgt hergestellt: […]
(§5) Die chromatographischen Daten wurden mit einem Nelson 3000 Datasystem gesammelt. Peakhöhen der Kalibrierungs-Standards jeder Verbindung wurden gemessen und gegen bekannte Konzentrationen aufgetragen. Eine lineare Kurve der kleinsten Quadrate (ungewichtet) wurde berechnet und alle Probenkonzentrationen wurden aus dieser Kurve rückgerechnet. Die Resultate sind in den Tabellen II-VIII zusammengestellt. Tabelle II

A short description of data set [3]: stability in methanol/water (HPLC). The format is physicochemical.
Description: as §1, §2, §3, §4
Jede Verbindung wurde in ein konisches 15 ml Teströhrchen eingewogen und in DMSO gelöst, so dass eine Vorratslösung von 10 mg/ml erhalten wurde. Die Proben für die Standardkurve wurden durch Verdünnen der DMSO-Vorratslösung mit der mobilen Phasen wie folgt hergestellt:
as §5

As to `Nc1ccn([C@H]2C=C[C@@H](CO)O2)c(=O)n1` [2′,3′-Didehydro-2′,3′-dideoxycytidin, reference compound], the “Scheinbarer Verteilungskoeffizient zwischen n-Octanol und Phosphatpuffer pH 7,4” value in data set [1] was found to be 0.03.

Consider `CC(=O)OC[C@@H]1CC[C@H](n2ccc(N)nc2=O)O1` [2′,3′-Dideoxycytidin 5′-acetat], for which the “Scheinbarer Verteilungskoeffizient zwischen n-Octanol und Phosphatpuffer pH 7,4” value in data set [1] stood at 0.14.

`Nc1ccn([C@H]2CC[C@@H](CO)O2)c(=O)n1` [2′,3′-Dideoxycytidin, reference compound]: the “Scheinbarer Verteilungskoeffizient zwischen n-Octanol und Phosphatpuffer pH 7,4” value in data set [1] is on record as 0.05.

Turning to `CC(=O)Nc1ccn([C@H]2C=C[C@@H](COC(C)=O)O2)c(=O)n1` [N-Acetyl 2′,3′-didehydro-2′,3′-dideoxycytidin 5′-acetat], the “Scheinbarer Verteilungskoeffizient zwischen n-Octanol und Phosphatpuffer pH 7,4” value in data set [1] is on record as 0.39.

In the case of `CC(=O)Nc1ccn([C@H]2CC[C@@H](COC(C)=O)O2)c(=O)n1` [N-Acetyl 2′,3′-dideoxycytidin 5′-acetat], the “Scheinbarer Verteilungskoeffizient zwischen n-Octanol und Phosphatpuffer pH 7,4” value in data set [1] was found to be 0.62.

In the case of `CC(=O)Nc1ccn([C@H]2CC[C@@H](CO)O2)c(=O)n1` [N-Acetyl 2′,3′-dideoxycytidin], the “Scheinbarer Verteilungskoeffizient zwischen n-Octanol und Phosphatpuffer pH 7,4” value in data set [1] came out at 0.22.

`O=C(Nc1ccn([C@H]2CC[C@@H](CO)O2)c(=O)n1)c1ccccc1` [N-Benzoyl 2′,3′-dideoxycytidin]: the “Scheinbarer Verteilungskoeffizient zwischen n-Octanol und Phosphatpuffer pH 7,4” value in data set [1] is on record as 15.0.

Consider `CCCCCCCCCCCCCCCC(=O)Nc1ccn([C@H]2CC[C@@H](COC(=O)CCCCCCCCCCCCCCC)O2)c(=O)n1` [N-Palmitoyl 2′,3′-dideoxycytidin 5′-palmitoat], for which, in data set [1], the “Scheinbarer Verteilungskoeffizient zwischen n-Octanol und Phosphatpuffer pH 7,4” value is on record as greater than 1000.

Regarding `CCC(=O)Nc1ccn([C@H]2CC[C@@H](COC(=O)CC)O2)c(=O)n1` [Verbindung 1a, N-Propanoyl 2′,3′-dideoxycytidin 5′-propanoat], the “% N, O-Diacyl (1a)” value amounted to 86% in data set [2] (time 0 (Tage)); 70% in data set [2] (time 0,5 (Tage)); 40% in data set [2] (time 1 (Tage)); 17% in data set [2] (time 2 (Tage)); 10% in data set [2] (time 4 (Tage)); 1% in data set [2] (time 24 (Tage)). In addition, the “Scheinbarer Verteilungskoeffizient zwischen n-Octanol und Phosphatpuffer pH 7,4” value in data set [1] is on record as 6.8. Further, the “% N, O-Diacyl (1a,1b,1c)” value in data set [3] (time 0 days) was found to be 100%; in data set [3] (time 14 days), 43%. Also, the “% N-Acyl (2a,2b, 2c)” value in data set [3] (time 14 days) was found to be 18%. In addition, the “% O-Acyl- (3a,3b,3c)” value in data set [3] (time 14 days) is given as 27%.

Take `CC(C)C(=O)Nc1ccn([C@H]2CC[C@@H](COC(=O)C(C)C)O2)c(=O)n1` [Verbindung 1b, N-(2-Methylpropanoyl) 2′,3′-dideoxycytidin 5′-(2-methylpropanoat)]: the “% N, O-Diacyl (1b)” value turned out to be 95% in data set [2] (time 0 (Tage)); 83% in data set [2] (time 0,5 (Tage)); 38% in data set [2] (time 1 (Tage)); 9% in data set [2] (time 2 (Tage)); 4% in data set [2] (time 4 (Tage)); 3% in data set [2] (time 24 (Tage)). In addition, the “Scheinbarer Verteilungskoeffizient zwischen n-Octanol und Phosphatpuffer pH 7,4” value in data set [1] is 58.0. Moreover, the “% N, O-Diacyl (1a,1b,1c)” value is recorded as 100% in data set [3] (time 0 days) and 73% in data set [3] (time 14 days). In data set [3] (time 14 days), the “% N-Acyl (2a,2b, 2c)” value is on record as 8%. In addition, the “% O-Acyl- (3a,3b,3c)” value in data set [3] (time 14 days) turned out to be 17%. The “% ddC 4” value in data set [3] (time 14 days) is 2%.

Turning to `CCCC(=O)Nc1ccn([C@H]2CC[C@@H](COC(=O)CCC)O2)c(=O)n1` [Verbindung 1c, N-Butanoyl 2′,3′-dideoxycytidin 5′-butanoat], the “% N, O-Diacyl (1c)” value stood at 64% in data set [2] (time 0 (Tage)); 23% in data set [2] (time 0,5 (Tage)); 10% in data set [2] (time 1 (Tage)); 7% in data set [2] (time 2 (Tage)); 6% in data set [2] (time 4 (Tage)); 6% in data set [2] (time 24 (Tage)). Besides, the “Scheinbarer Verteilungskoeffizient zwischen n-Octanol und Phosphatpuffer pH 7,4” value in data set [1] came out at 70.0. Also, the “% N, O-Diacyl (1a,1b,1c)” value in data set [3] (time 0 days) was determined as 100%; in data set [3] (time 14 days), 43%. In addition, the “% N-Acyl (2a,2b, 2c)” value in data set [3] (time 14 days) is reported as 20%. Also, the “% O-Acyl- (3a,3b,3c)” value in data set [3] (time 14 days) is reported as 32%. Moreover, the “% ddC 4” value in data set [3] (time 14 days) is given as 25%.

On to `CCC(=O)Nc1ccn([C@H]2CC[C@@H](CO)O2)c(=O)n1` [Verbindung 2a, N-Propanoyl 2′,3′-dideoxycytidin], for which the “% N-Acyl (2a)” value in data set [2] (time 0 (Tage)) is 97%; in data set [2] (time 0,5 (Tage)), 87%; in data set [2] (time 1 (Tage)), 85%; in data set [2] (time 2 (Tage)), 96%; in data set [2] (time 4 (Tage)) it was 99%; in data set [2] (time 24 (Tage)), 80%. The “Scheinbarer Verteilungskoeffizient zwischen n-Octanol und Phosphatpuffer pH 7,4” value in data set [1] was 0.83. Besides, the “% N-Acyl (2a,2b, 2c)” value in data set [3] (time 0 days) worked out at 100%; in data set [3] (time 14 days), 56%. Also, the “% ddC 4” value in data set [3] (time 14 days) is reported as 28%.

In the case of `CC(C)C(=O)Nc1ccn([C@H]2CC[C@@H](CO)O2)c(=O)n1` [Verbindung 2b, N-(2-Methylpropanoyl) 2′,3′-dideoxycytidin], the “% N-Acyl (2b)” value in data set [2] (time 0 (Tage)) amounted to 83%; in data set [2] (time 0,5 (Tage)), 88%; in data set [2] (time 1 (Tage)) it was 61%; in data set [2] (time 2 (Tage)), 78%; in data set [2] (time 4 (Tage)) it was 89%; in data set [2] (time 24 (Tage)), 92%. For the same compound, the “Scheinbarer Verteilungskoeffizient zwischen n-Octanol und Phosphatpuffer pH 7,4” value in data set [1] is reported as 2.38. Besides, the entries for the “% N-Acyl (2a,2b, 2c)” value in data set [3] (time 0 days) and in data set [3] (time 14 days) were 100% and 83%, respectively. For the same compound, the “% O-Acyl- (3a,3b,3c)” value in data set [3] (time 14 days) is recorded as 17%. Besides, the “% ddC 4” value in data set [3] (time 14 days) amounted to 2%.

As to `CCCC(=O)Nc1ccn([C@H]2CC[C@@H](CO)O2)c(=O)n1` [Verbindung 2c, N-Butanoyl 2′,3′-dideoxycytidin], the “% N-Acyl (2c)” value in data set [2] (time 0 (Tage)) turned out to be 101%; in data set [2] (time 0,5 (Tage)), 95%; in data set [2] (time 1 (Tage)), 92%; in data set [2] (time 2 (Tage)) it was 90%; in data set [2] (time 4 (Tage)) it was 85%; in data set [2] (time 24 (Tage)), 77%. The “Scheinbarer Verteilungskoeffizient zwischen n-Octanol und Phosphatpuffer pH 7,4” value in data set [1] was 2.67. Moreover, the “% N-Acyl (2a,2b, 2c)” value in data set [3] (time 0 days) turned out to be 100%; in data set [3] (time 14 days) it was 76%. Moreover, in data set [3] (time 14 days), the “% ddC 4” value was 20%.
